{
  "source": "ChEMBL document CHEMBL5325501",
  "about": "“Discovery of BWA-522, a First-in-Class and Orally Bioavailable PROTAC Degrader of the Androgen Receptor Targeting N-Terminal Domain for the Treatment of Prostate Cancer” (J Med Chem, 2023)",
  "key": {"VCaP [1]": {"tested_on": "VCaP", "experiment": "Antiproliferative activity against human VCaP cells assessed as reduction in cell viability incubated for 6 days by CCK-8 assay", "type": "functional, cell-based", "conditions": "144 h"}, "LNCaP [2]": {"tested_on": "LNCaP", "experiment": "Downregulation of PSA protein level in human LNCaP cells incubated for 48 hrs by Western blot analysis", "type": "functional, cell-based", "conditions": "dose 1-10 µM"}, "LNCaP [3]": {"tested_on": "LNCaP", "experiment": "Antiproliferative activity against AR-dependent human LNCaP cells assessed as reduction in cell viability at 3 to 10 uM incubated for 6 days by CCK-8 assay", "type": "functional, cell-based", "conditions": "dose 3-10 µM, time 6.0 day"}, "[4]": {"experiment": "Metabolic stability in human liver microsomes assessed as half-life at 2 uM preincubated for 10 mins in the presence of NADPH followed by compound addition and measured after 60 mins by LC-MS/MS analysis", "type": "ADME, Microsome"}, "[5]": {"experiment": "Downregulation of TMPRSS2 protein level in human VCaP cells at 10 uM incubated for 48 hrs by Western blot analysis relative to control", "type": "functional"}, "[6]": {"experiment": "Metabolic stability in mouse liver microsomes assessed as parent compound remaining at 2 uM preincubated for 10 mins in the presence of NADPH followed by compound addition and measured after 60 mins by LC-MS/MS analysis", "type": "ADME, Microsome", "conditions": "read-out: Stability"}, "LNCaP [7]": {"tested_on": "LNCaP", "experiment": "Downregulation of FKBP51 protein level in human LNCaP cells incubated for 48 hrs by Western blot analysis", "type": "functional, cell-based", "conditions": "dose 1-10 µM"}, "LNCaP [8]": {"tested_on": "LNCaP", "experiment": "Antiproliferative activity against human LNCaP cells assessed as reduction in cell viability incubated for 6 days by CCK-8 assay", "type": "functional, cell-based", "conditions": "144 h"}, "[9]": {"experiment": "Toxicity in ICR mouse assessed as kidney damage at 20 to 60 mg/kg, po administered daily for 14 days", "type": "organism-based", "conditions": "in vivo, 336 h, dose 20-60 mg/kg, time 14 day"}, "[10]": {"experiment": "Stability in mouse plasma assessed as parent compound remaining measured after 60 mins by LC-MS/MS analysis", "type": "ADME, cell-free", "conditions": "read-out: Stability"}, "[11]": {"experiment": "Toxicity in ICR mouse assessed as testicle damage at 20 to 60 mg/kg, po administered daily for 14 days", "type": "organism-based", "conditions": "in vivo, 336 h, dose 20-60 mg/kg, time 14 day"}, "[12]": {"experiment": "Cmax in beagle dog at 5 mg/kg, po measured by LC-MS/MS analysis", "type": "ADME, organism-based, Canis lupus familiaris", "set-up": "dose 5 mg/kg, route po", "conditions": "in vivo"}, "VCaP [13]": {"tested_on": "VCaP", "experiment": "Downregulation of FKBP51 protein level in human VCaP cells incubated for 48 hrs by Western blot analysis", "type": "functional, cell-based", "conditions": "dose 1-10 µM"}, "LNCaP [14]": {"tested_on": "LNCaP", "experiment": "Antitumor activity against human LNCaP cells xenografted in NOD SCID mouse assessed as tumor growth inhibition at 20 mg/kg, po administered daily for 4 weeks relative to control", "type": "functional", "conditions": "672 h, read-out: TGI"}, "[15]": {"experiment": "Metabolic stability in human liver microsomes assessed as parent compound remaining at 2 uM preincubated for 10 mins followed by compound addition and measured after 60 mins by LC-MS/MS analysis", "type": "ADME, Microsome", "conditions": "read-out: Stability"}, "VCaP [16]": {"tested_on": "VCaP", "experiment": "Induction of apoptosis in human VCaP cells assessed as PARP-1 cleavage at 5 to 10 uM incubated for 48 hrs by Western blot analysis", "type": "functional, cell-based", "conditions": "dose 5-10 µM"}, "[17]": {"experiment": "Toxicity in ICR mouse assessed as spleen damage at 20 to 60 mg/kg, po administered daily for 14 days", "type": "organism-based", "conditions": "in vivo, 336 h, dose 20-60 mg/kg, time 14 day"}, "[18]": {"experiment": "Downregulation of PSA protein level in human LNCaP cells at 10 uM incubated for 48 hrs by Western blot analysis relative to control", "type": "functional"}, "[19]": {"experiment": "Stability in mouse plasma assessed as parent compound remaining measured after 30 mins by LC-MS/MS analysis", "type": "ADME, cell-free", "conditions": "read-out: Stability"}, "CWR22R [20]": {"tested_on": "CWR22R", "experiment": "Inhibition of colony formation in human 22Rv1 cells incubated for 2 weeks by crystal violet staining based analysis", "type": "functional, cell-based", "conditions": "dose 1-10 µM"}, "[21]": {"experiment": "Metabolic stability in mouse liver microsomes assessed as half-life at 2 uM preincubated for 10 mins in the presence of NADPH followed by compound addition and measured after 60 mins by LC-MS/MS analysis", "type": "ADME, Microsome"}, "LNCaP [22]": {"tested_on": "LNCaP", "experiment": "Inhibition of colony formation in human LNCaP cells incubated for 2 weeks by crystal violet staining based analysis", "type": "functional, cell-based", "conditions": "dose 1-10 µM"}, "[23]": {"molecular_target": "Voltage-gated inwardly rectifying potassium channel KCNH2 (Homo sapiens, UniProt Q12809)", "sequence (Q12809 whole entry)": "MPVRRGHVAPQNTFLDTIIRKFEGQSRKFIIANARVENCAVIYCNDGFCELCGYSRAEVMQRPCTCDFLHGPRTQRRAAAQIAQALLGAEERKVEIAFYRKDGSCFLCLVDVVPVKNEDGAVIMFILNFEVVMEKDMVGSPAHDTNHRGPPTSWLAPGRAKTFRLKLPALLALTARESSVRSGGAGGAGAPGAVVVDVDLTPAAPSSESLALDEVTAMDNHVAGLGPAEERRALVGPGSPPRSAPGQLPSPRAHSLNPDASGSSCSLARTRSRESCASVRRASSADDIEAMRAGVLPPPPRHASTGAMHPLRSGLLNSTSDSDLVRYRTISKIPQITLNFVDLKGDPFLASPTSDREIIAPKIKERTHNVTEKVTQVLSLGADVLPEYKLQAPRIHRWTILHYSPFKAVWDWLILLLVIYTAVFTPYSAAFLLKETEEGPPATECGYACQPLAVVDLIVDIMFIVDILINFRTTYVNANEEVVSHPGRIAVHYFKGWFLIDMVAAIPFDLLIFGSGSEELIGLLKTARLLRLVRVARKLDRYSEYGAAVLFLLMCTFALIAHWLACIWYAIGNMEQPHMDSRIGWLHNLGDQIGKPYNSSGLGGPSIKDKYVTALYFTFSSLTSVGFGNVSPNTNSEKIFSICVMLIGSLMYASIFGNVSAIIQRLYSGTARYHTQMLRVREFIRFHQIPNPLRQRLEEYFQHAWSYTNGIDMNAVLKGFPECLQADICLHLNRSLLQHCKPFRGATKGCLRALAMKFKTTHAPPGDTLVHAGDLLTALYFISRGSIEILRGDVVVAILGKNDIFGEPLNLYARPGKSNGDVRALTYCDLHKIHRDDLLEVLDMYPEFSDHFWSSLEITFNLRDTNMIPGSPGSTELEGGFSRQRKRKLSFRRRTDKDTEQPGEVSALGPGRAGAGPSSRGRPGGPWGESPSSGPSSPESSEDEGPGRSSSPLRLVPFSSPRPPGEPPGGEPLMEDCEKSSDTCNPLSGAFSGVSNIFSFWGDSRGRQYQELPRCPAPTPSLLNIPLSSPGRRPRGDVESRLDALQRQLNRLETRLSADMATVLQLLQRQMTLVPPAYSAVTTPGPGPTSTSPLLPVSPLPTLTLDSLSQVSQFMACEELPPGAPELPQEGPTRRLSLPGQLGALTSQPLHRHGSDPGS", "experiment": "Inhibition of hERG in HEK293 cells by whole-cell manual patch clamp technique", "type": "toxicity, cell-based"}, "[24]": {"experiment": "Stability in human plasma assessed as parent compound remaining measured after 15 mins by LC-MS/MS analysis", "type": "ADME, cell-free", "conditions": "read-out: Stability"}, "[25]": {"experiment": "Stability in human plasma assessed as parent compound remaining measured after 60 mins by LC-MS/MS analysis", "type": "ADME, cell-free", "conditions": "read-out: Stability"}, "LNCaP [26]": {"tested_on": "LNCaP", "experiment": "Induction of apoptosis in human LNCaP cells assessed as caspase-3 cleavage at 5 to 10 uM incubated for 48 hrs by Western blot analysis", "type": "functional, cell-based", "conditions": "dose 5-10 µM"}, "[27]": {"experiment": "Stability in mouse plasma assessed as parent compound remaining measured immediately by LC-MS/MS analysis", "type": "ADME, cell-free", "conditions": "read-out: Stability"}, "VCaP [28]": {"tested_on": "VCaP", "experiment": "Antiproliferative activity against AR-dependent human VCaP cells assessed as reduction in cell viability at 3 to 10 uM incubated for 6 days by CCK-8 assay", "type": "functional, cell-based", "conditions": "dose 3-10 µM, time 6.0 day"}, "LNCaP [29]": {"tested_on": "LNCaP", "experiment": "Antitumor activity against human LNCaP cells xenografted in NOD SCID mouse assessed as reduction in tumor weight at 20 to 60 mg/kg, po administered daily for 4 weeks", "type": "functional, organism-based", "conditions": "dose 20-60 mg/kg"}, "LNCaP [30]": {"tested_on": "LNCaP", "experiment": "Induction of apoptosis in human LNCaP cells assessed as PARP-1 cleavage at 5 to 10 uM incubated for 48 hrs by Western blot analysis", "type": "functional, cell-based", "conditions": "dose 5-10 µM"}, "LNCaP [31]": {"tested_on": "LNCaP", "experiment": "Antitumor activity against human LNCaP cells xenografted in NOD SCID mouse assessed as inhibition of tumor volume at 20 to 60 mg/kg, po administered daily for 4 weeks", "type": "functional, organism-based", "conditions": "dose 20-60 mg/kg"}, "[32]": {"experiment": "Half-life in beagle dog at 1 mg/kg, iv measured by LC-MS/MS analysis", "type": "ADME, organism-based, Canis lupus familiaris", "conditions": "in vivo"}, "CWR22R [33]": {"tested_on": "CWR22R", "experiment": "Antiproliferative activity against AR-dependent human 22Rv1 cells assessed as reduction in cell viability at 3 to 10 uM incubated for 6 days by CCK-8 assay", "type": "functional, cell-based", "conditions": "dose 3-10 µM, time 6.0 day"}, "[34]": {"experiment": "Cmax in ICR mouse at 2 mg/kg, iv measured by LC-MS/MS analysis", "type": "ADME, organism-based", "set-up": "dose 2 mg/kg, route iv", "conditions": "in vivo"}},
  "note": "The source made the active and inactive calls. The rule behind the calls is not given here.",
  "data": [
    {"molecule": "CC(C)(c1ccc(OCC2CCN(CC3CCN(c4ccc5c(c4)C(=O)N(C4CCC(=O)NC4=O)C5=O)CC3)CC2)cc1)c1ccc(OC[C@H](O)CCl)cc1", "note": "(some centres undefined)", "values": [
      {"measurement": "IC50", "setting": "VCaP [1]", "result": 5.59, "unit": "µM"},
      {"measurement": "Activity", "setting": "LNCaP [2]", "result": "Dose-Dependent Effect"},
      {"measurement": "Activity", "setting": "LNCaP [3]", "result": "Active"},
      {"measurement": "half-life at 2 µM", "setting": "[4]", "result": 3.12, "unit": "h"},
      {"measurement": "Activity", "setting": "[5]", "result": "~40", "unit": "%"},
      {"measurement": "remaining at 1 h, 2 µM", "setting": "[6]", "result": 78.2, "unit": "%"},
      {"measurement": "Activity", "setting": "LNCaP [7]", "result": "Dose-Dependent Effect"},
      {"measurement": "IC50", "setting": "LNCaP [8]", "result": 1.07, "unit": "µM"},
      {"measurement": "Activity", "setting": "[9]", "result": "Non-Toxic"},
      {"measurement": "remaining at 1 h", "setting": "[10]", "result": 90.8, "unit": "%"},
      {"measurement": "Activity", "setting": "[11]", "result": "Non-Toxic"},
      {"measurement": "Cmax", "setting": "[12]", "result": 97.3, "unit": "ng/mL"},
      {"measurement": "Activity", "setting": "VCaP [13]", "result": "Dose-Dependent Effect"},
      {"measurement": "inhibition in vivo at 20 mg/kg", "setting": "LNCaP [14]", "result": 26, "unit": "%"},
      {"measurement": "remaining at 1 h, 2 µM", "setting": "[15]", "result": 94, "unit": "%"},
      {"measurement": "Activity", "setting": "VCaP [16]", "result": "Active"},
      {"measurement": "Activity", "setting": "[17]", "result": "Non-Toxic"},
      {"measurement": "Activity", "setting": "[18]", "result": "~15", "unit": "%"},
      {"measurement": "remaining at 0.5 h", "setting": "[19]", "result": 90.3, "unit": "%"},
      {"measurement": "inhibition", "setting": "CWR22R [20]", "result": "Dose-Dependent Effect"},
      {"measurement": "half-life at 2 µM", "setting": "[21]", "result": 3.12, "unit": "h"},
      {"measurement": "inhibition", "setting": "LNCaP [22]", "result": "Dose-Dependent Effect"},
      {"measurement": "IC50", "setting": "[23]", "result": "> 10", "unit": "µM"},
      {"measurement": "remaining at 0.25 h", "setting": "[24]", "result": 92.2, "unit": "%"},
      {"measurement": "remaining at 1 h", "setting": "[25]", "result": 91.9, "unit": "%"},
      {"measurement": "Activity", "setting": "LNCaP [26]", "result": "Active"},
      {"measurement": "remaining at 0 min", "setting": "[27]", "result": 100, "unit": "%"},
      {"measurement": "Activity", "setting": "VCaP [28]", "result": "Active"},
      {"measurement": "Activity", "setting": "LNCaP [29]", "result": "Active"},
      {"measurement": "Activity", "setting": "LNCaP [30]", "result": "Active"},
      {"measurement": "Activity", "setting": "LNCaP [31]", "result": "Active"},
      {"measurement": "half-life", "setting": "[32]", "result": 9.9, "unit": "h"},
      {"measurement": "Activity", "setting": "CWR22R [33]", "result": "Active"},
      {"measurement": "Cmax", "setting": "[34]", "result": 782, "unit": "ng/mL"}
    ]}
  ]
}
